# ± gives the standard deviation of the averaged measurements.
# What was measured:
# [1] = compound: T1, Cc1ccc(-c2cc(C(F)(F)F)nn2-c2ccc(S(N)(=O)=O)cc2)cc1 [CELECOXIB]; assay: surviving fraction relative to DMSO-only wells; higher = less growth inhibition; conditions: exposure time: 5 days
# Summary of the method: (§1)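 Continuous five-day exposure to inhibitors at 0.5, 1, 5, 10, 50, 100, 500 and 1000 nM started 24 hours after log-phase tumour cell lines were seeded at 250–500 cells per well in 384-well plates. Luminescence was read after 10 minutes at room temperature. Viability is given as surviving fraction, meaning CellTiter-Glo luminescence normalised to the median of DMSO-only wells.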
# [2] = compound: CC(=O)NCC(=O)N1[C@@H]2CC[C@H]1c1ccc(Nc3ncc(C(F)(F)F)c(NC4CCC4)n3)cc12; assay: as above; conditions: exposure time: 5 days
# Summary of the method: as §1
# [3] = compound: T2, CC[C@@]1(O)C(=O)OCc2c1cc1n(c2=O)Cc2cc3ccccc3nc2-1 [CAMPTOTHECIN]; assay: as above; conditions: exposure time: 5 days
# Summary of the method: as §1
# [4] = compound: T3, COc1cc2ncnc(Nc3ccc(F)c(Cl)c3)c2cc1OCCCN1CCOCC1 [GEFITINIB]; assay: as above; conditions: exposure time: 5 days
# Summary of the method: as §1
# [5] = compound: T4, C[C@]1(O)C[C@@H](c2nc(-c3ccc4ccc(-c5ccccc5)nc4c3)c3c(N)nccn32)C1 [OSI-906]; assay: as above; conditions: exposure time: 5 days
# Summary of the method: as §1
# [6] = compound: T5, COCC[n+]1c2c(n(Cc3cnccn3)c1C)C(=O)c1ccccc1C2=O [YM155]; assay: as above; conditions: exposure time: 5 days
# Summary of the method: as §1
# [7] = compound: T6, O=C(O)C1(C(=O)O)CCC1.[NH2-].[NH2-].[Pt+2] [CARBOPLATIN]; assay: as above; conditions: exposure time: 5 days
# Summary of the method: as §1
# [8] = compound: CC(=O)c1c(C)c2cnc(Nc3ccc(N4CCNCC4)cn3)nc2n(C2CCCC2)c1=O; assay: as above; conditions: exposure time: 5 days
# Summary of the method: as §1
# [9] = compound: T7, CC(=O)O[C@H]1C(=O)[C@@]2(C)[C@H]([C@H](OC(=O)c3ccccc3)[C@]3(O)C[C@H](OC(=O)[C@H](O)[C@@H](NC(=O)c4ccccc4)c4ccccc4)C(C)=C1C3(C)C)[C@]1(OC(C)=O)CO[C@@H]1C[C@@H]2O [PACLITAXEL]; assay: as above; conditions: exposure time: 5 days
# Summary of the method: as §1
# [10] = compound: T1, CELECOXIB; assay: area under dose-response curve of surviving fraction (unscaled, Aref=0) (surviving fraction x log10(nM)); higher = more resistant; conditions: exposure time: 5 days; dose range 0.5-1000 nM
# Summary of the method: (§2)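 Tumour cell lines in 384-well plates were exposed to eight inhibitor concentrations, from 0.5 to 1000 nM, for five days, and viability was read by CellTiter-Glo luminescence in three screens per line. Signals were normalised to DMSO-only wells, and 3-parameter logistic regression in the drc R package fitted dose-response survival curves to the surviving fractions. Area under the curve is given as the unscaled activity area. That area is taken over log10 dose with Aref = 0.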
# [11] = compound: CC(=O)NCC(=O)N1[C@@H]2CC[C@H]1c1ccc(Nc3ncc(C(F)(F)F)c(NC4CCC4)n3)cc12; assay: as above; conditions: exposure time: 5 days; dose range 0.5-1000 nM
# Summary of the method: as §2
# [12] = compound: T2, CAMPTOTHECIN; assay: as above; conditions: exposure time: 5 days; dose range 0.5-1000 nM
# Summary of the method: as §2
# [13] = compound: T3, GEFITINIB; assay: as above; conditions: exposure time: 5 days; dose range 0.5-1000 nM
# Summary of the method: as §2
# [14] = compound: T4, OSI-906; assay: as above; conditions: exposure time: 5 days; dose range 0.5-1000 nM
# Summary of the method: as §2
# [15] = compound: T5, YM155; assay: as above; conditions: exposure time: 5 days; dose range 0.5-1000 nM
# Summary of the method: as §2
# [16] = compound: T6, CARBOPLATIN; assay: as above; conditions: exposure time: 5 days; dose range 0.5-1000 nM
# Summary of the method: as §2
# [17] = compound: CC(=O)c1c(C)c2cnc(Nc3ccc(N4CCNCC4)cn3)nc2n(C2CCCC2)c1=O; assay: as above; conditions: exposure time: 5 days; dose range 0.5-1000 nM
# Summary of the method: as §2
# [18] = compound: T7, PACLITAXEL; assay: as above; conditions: exposure time: 5 days; dose range 0.5-1000 nM
# Summary of the method: as §2
test system,measurement,setting,value
HU09 BONE,surviving fraction,[1]; 0.5 nM,1 ± 0.092
same,surviving fraction,[1]; 1 nM,0.961 ± 0.061
same,surviving fraction,[1]; 5 nM,1.08 ± 0.027
same,surviving fraction,[1]; 10 nM,1.03 ± 0.13
same,surviving fraction,[1]; 50 nM,1.04 ± 0.05
same,surviving fraction,[1]; 500 nM,0.952 ± 0.18
same,surviving fraction,[1]; 1000 nM,0.846 ± 0.02
same,surviving fraction,[2]; 0.5 nM,1.05 ± 0.082
same,surviving fraction,[2]; 1 nM,1.01 ± 0.03
same,surviving fraction,[2]; 5 nM,1.08 ± 0.075
same,surviving fraction,[2]; 10 nM,1.11 ± 0.078
same,surviving fraction,[2]; 50 nM,0.67 ± 0.024
same,surviving fraction,[2]; 100 nM,0.583 ± 0.011
same,surviving fraction,[2]; 500 nM,0.3 ± 0.0061
same,surviving fraction,[2]; 1000 nM,0.179 ± 0.023
same,surviving fraction,[3]; 0.5 nM,0.84 ± 0.015
same,surviving fraction,[3]; 1 nM,0.82 ± 0.06
same,surviving fraction,[3]; 5 nM,0.311 ± 0.065
same,surviving fraction,[3]; 10 nM,0.0673 ± 0.011
same,surviving fraction,[3]; 50 nM,0.026 ± 0.0027
same,surviving fraction,[3]; 100 nM,0.0207 ± 0.00058
same,surviving fraction,[3]; 500 nM,0.0163 ± 0.00058
same,surviving fraction,[3]; 1000 nM,0.0203 ± 0.0011
same,surviving fraction,[4]; 0.5 nM,0.997 ± 0.069
same,surviving fraction,[4]; 1 nM,0.921 ± 0.055
same,surviving fraction,[4]; 5 nM,0.972 ± 0.023
same,surviving fraction,[4]; 10 nM,1.02 ± 0.079
same,surviving fraction,[4]; 50 nM,1.1 ± 0.018
same,surviving fraction,[4]; 100 nM,1.09 ± 0.075
same,surviving fraction,[4]; 500 nM,1.1 ± 0.16
same,surviving fraction,[4]; 1000 nM,0.952 ± 0.1
same,surviving fraction,[5]; 0.5 nM,0.79 ± 0.071
same,surviving fraction,[5]; 1 nM,0.852 ± 0.082
same,surviving fraction,[5]; 5 nM,0.956 ± 0.067
same,surviving fraction,[5]; 10 nM,0.909 ± 0.043
same,surviving fraction,[5]; 50 nM,0.854 ± 0.11
same,surviving fraction,[5]; 100 nM,0.785 ± 0.027
same,surviving fraction,[5]; 500 nM,0.517 ± 0.087
same,surviving fraction,[5]; 1000 nM,0.481 ± 0.04
same,surviving fraction,[6]; 0.5 nM,0.942 ± 0.072
same,surviving fraction,[6]; 1 nM,1.01 ± 0.13
same,surviving fraction,[6]; 5 nM,0.925 ± 0.053
same,surviving fraction,[6]; 10 nM,0.917 ± 0.11
same,surviving fraction,[6]; 50 nM,0.5387 ± 0.004
same,surviving fraction,[6]; 100 nM,0.374 ± 0.016
same,surviving fraction,[6]; 500 nM,0.161 ± 0.0055
same,surviving fraction,[6]; 1000 nM,0.0983 ± 0.0055
same,surviving fraction,[7]; 0.5 nM,0.977 ± 0.027
same,surviving fraction,[7]; 1 nM,0.955 ± 0.056
same,surviving fraction,[7]; 5 nM,1.17 ± 0.069
same,surviving fraction,[7]; 10 nM,1.09 ± 0.021
same,surviving fraction,[7]; 50 nM,1.09 ± 0.046
same,surviving fraction,[7]; 100 nM,1.11 ± 0.13
same,surviving fraction,[7]; 500 nM,1.09 ± 0.076
same,surviving fraction,[7]; 1000 nM,1.07 ± 0.12
same,surviving fraction,[8]; 0.5 nM,0.993 ± 0.16
same,surviving fraction,[8]; 1 nM,0.91 ± 0.051
same,surviving fraction,[8]; 5 nM,1.08 ± 0.022
same,surviving fraction,[8]; 10 nM,1.05 ± 0.11
same,surviving fraction,[8]; 50 nM,1.04 ± 0.15
same,surviving fraction,[8]; 100 nM,1.19 ± 0.049
same,surviving fraction,[8]; 500 nM,0.984 ± 0.17
same,surviving fraction,[8]; 1000 nM,1.04 ± 0.059
same,surviving fraction,[9]; 0.5 nM,0.811 ± 0.11
same,surviving fraction,[9]; 1 nM,0.45 ± 0.011
same,surviving fraction,[9]; 5 nM,0.0977 ± 0.0081
same,surviving fraction,[9]; 10 nM,0.0603 ± 0.0055
same,surviving fraction,[9]; 50 nM,0.0367 ± 0.0029
same,surviving fraction,[9]; 100 nM,0.0263 ± 0.0042
same,surviving fraction,[9]; 500 nM,0.0247 ± 0.0015
same,surviving fraction,[9]; 1000 nM,0.0247 ± 0.0042
same,area under dose-response curve,[10],3.26
same,area under dose-response curve,[11],2.44
same,area under dose-response curve,[12],0.747
same,area under dose-response curve,[13],3.37
same,area under dose-response curve,[14],2.66
same,area under dose-response curve,[15],2.13
same,area under dose-response curve,[16],3.58
same,area under dose-response curve,[17],3.47
same,area under dose-response curve,[18],0.426

# From the supplement of paper PMC6045584
